The record followed here is ChEMBL document CHEMBL1150546, “Adenosine dialdehyde analogs I: Regioselective synthesis of adenosine monoaldehydes” (Bioorg Med Chem Lett, 1996).

Values after ≈ are worked out from the molar mass of the structure shown.

The subject of one assay is L929. The experiment in a line: cells. To be noted: Mus musculus.
The target of assay [1] is T1, Adenosylhomocysteinase (Homo sapiens, UniProt P23526). Nature of the assay: Compound was tested for inhibition of S-adenosyl homocysteine (SAH) hydrolase.
Target sequence in this assay (P23526 whole entry): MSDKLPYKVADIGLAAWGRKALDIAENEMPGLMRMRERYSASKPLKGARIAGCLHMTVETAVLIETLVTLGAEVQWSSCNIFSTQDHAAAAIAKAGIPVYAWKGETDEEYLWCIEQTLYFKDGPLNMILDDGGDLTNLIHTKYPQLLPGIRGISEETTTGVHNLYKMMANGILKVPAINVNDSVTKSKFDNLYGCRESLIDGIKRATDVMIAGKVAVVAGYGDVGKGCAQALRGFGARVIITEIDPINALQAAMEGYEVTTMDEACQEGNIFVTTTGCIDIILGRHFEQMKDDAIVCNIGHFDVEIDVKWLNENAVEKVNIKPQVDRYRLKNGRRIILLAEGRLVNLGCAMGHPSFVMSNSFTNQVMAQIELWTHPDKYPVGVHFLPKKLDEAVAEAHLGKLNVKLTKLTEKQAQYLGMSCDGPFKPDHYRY
Another assay deals with Vero. The experiment in a line: cells. The settings on record: Chlorocebus sabaeus.
In assay [2] the target is T1, Adenosylhomocysteinase. Nature of the assay: Compound was tested for competitive inhibition against S-adenosyl homocysteine (SAH) hydrolase.
Target sequence in this assay (P23526 whole entry): as above
Assay [3] addresses T1, Adenosylhomocysteinase. Nature of the assay: Percentage inhibition of S-adenosyl homocysteine (SAH) hydrolase by the compound at a concentration of 10 uM.
Target sequence in this assay (P23526 2-432 limits assumed): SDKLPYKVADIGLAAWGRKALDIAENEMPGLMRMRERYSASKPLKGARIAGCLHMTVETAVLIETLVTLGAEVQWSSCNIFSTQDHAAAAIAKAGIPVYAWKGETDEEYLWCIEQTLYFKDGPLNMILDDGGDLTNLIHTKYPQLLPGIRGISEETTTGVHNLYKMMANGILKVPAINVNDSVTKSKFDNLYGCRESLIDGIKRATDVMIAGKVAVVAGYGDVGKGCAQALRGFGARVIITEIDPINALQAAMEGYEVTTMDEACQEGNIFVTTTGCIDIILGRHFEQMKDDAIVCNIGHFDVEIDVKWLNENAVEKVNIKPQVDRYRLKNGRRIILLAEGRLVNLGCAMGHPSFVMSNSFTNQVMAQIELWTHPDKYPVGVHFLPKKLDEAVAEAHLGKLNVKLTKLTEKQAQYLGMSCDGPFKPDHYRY

The term IC50 denotes the midpoint of a concentration-inhibition curve. Read a low IC50 as inhibition by little substance. One may read the Ki as a measure of affinity in units of concentration, obtained from inhibition or displacement. A high value points to lower affinity. For the molecule `C=C(C=O)OC(C=O)n1cnc2c(N)ncnc21` (stereo unspecified), the IC50 stood at 8.9 µg/mL (≈ 36 µM) with L929 and 11.5 µg/mL (≈ 46.5 µM) in the assay with Vero. On Adenosylhomocysteinase [1], this molecule returned a Ki of 0.5 nM.
The term inhibition denotes the drop in the measured response relative to a control, in per cent. As to `Nc1ncnc2c1ncn2[C@@H](CO)O[C@@H](C=O)CO`, the concentration for half-maximal inhibition (IC50) is 1.9 µg/mL (≈ 7.11 µM) with L929 and 0.41 µg/mL (≈ 1.53 µM) in the assay with Vero. Also, the affinity at Adenosylhomocysteinase [2] corresponds to a Ki of 1900 nM. The molecule also gave an inhibition against Adenosylhomocysteinase [3] of 89%.
With `Nc1ncnc2c1ncn2[C@@H](C=O)OC(CO)CO`, the inhibition on Adenosylhomocysteinase [3] was determined as 4%.
Regarding `Nc1ncnc2c1ncn2C(C=O)OC(C=O)CO` (stereo unspecified), the half-inhibitory concentration (IC50) in the assay on L929 came out at 3.1 µg/mL (≈ 11.7 µM); with Vero, 0.41 µg/mL (≈ 1.55 µM). At Adenosylhomocysteinase [1], this molecule yielded a Ki of 3.3 nM.
